Experimental data from patent publication US20140357713A1, “ANTIMICROBIAL COMPOUNDS AND METHODS OF USE” (NexMed Holdings, Inc., priority 2012, published 2014).
Like-named read-outs stand apart in the source and are kept apart here.

Columns and labels:
[1] = system: Pseudomonas aeruginosa (ATCC 27853); experiment: Minimum inhibitory concentration (MIC) assay, Example 33; assay type: cell-based; conditions: Pseudomonas aeruginosa
In short: (§1)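 Broth microdilution MIC per CLSI guidelines, in CAMHB with serial 2-fold compound dilutions. Bacterial inocula were adjusted to a 0.5 McFarland standard, then diluted 1:100 and 1:2 in the wells. Plates were incubated at 35 °C, and the MIC was read according to CLSI.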

[2] = system: Escherichia coli (ATCC 25922); experiment: as above; assay type: cell-based; conditions: Escherichia coli
In short: as §1

[3] = system: Aspergillus niger (CMCC 98003); experiment: Time kill study, Example 33 (0 to 5 min); assay type: cell-based; conditions: 1×MIC
Procedure: Thirty compounds were tested for antimicrobial activity using standard procedures and standard strains for both the minimum inhibitory concentration (MIC) assay and a time kill study. Both the MIC assay and the time kill study were performed according to Clinical and Laboratory Standards Institute (CLSI) guidelines. Three bacteria strains, Escherichia coli (ATCC 25922), Pseudomonas aeruginosa (ATCC 27853), Staphulococcus aureus (ATCC 29213), and two fungus strains, Candida albicans (ATCC 90029) and Aspergillus niger (CMCC 98003), were used in the experiments.
The viable counts in Log10 CFU/mL at each time point were recorded.
Time kill studies. Strain suspensions were prepared as described above for the MIC test, and strain suspensions and compound solutions were mixed in the same volume. Samples were removed at specified times including 0 min, 30 sec, 1 min and 5 mins, were diluted in the test medium and streaked on agar. Colonies were counted after 24 to 48 hrs of incubation.
The MIC values for thirty compounds against Escherichia coli, Pseudomonas aeruginosa, Staphulococcus aureus, Candida albicans, and Aspergillus niger were recorded and are presented in Table 3 and Table 4.

[4] = system: Staphulococcus aureus (ATCC 29213); experiment: Minimum inhibitory concentration (MIC) assay, Example 33; assay type: cell-based, Staphylococcus aureus; conditions: Staphylococcus aureus
In short: as §1

[5] = pH (Table 1); assay type: physicochemical
[6] = system: Candida albicans (ATCC 90029); experiment: Minimum inhibitory concentration (MIC) assay, Example 33; assay type: cell-based; conditions: Candida albicans
In short: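 Broth microdilution per CLSI guidelines in RPMI 1640; inoculum set to OD530 0.08–0.13, diluted 1:50 then 1:20 to 2× strength and mixed 1:2 with 2-fold serial compound dilutions. Incubated at 35° C; MIC read per CLSI.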

[7] = system: Staphylococcus aureus (ATCC 29213); experiment: Time kill study, Example 33 (0 to 5 min); assay type: cell-based; conditions: 1×MIC
In short: (§2)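 Performed per CLSI guidelines. Strain suspensions prepared as for MIC testing were mixed with compound solution in equal volume; samples taken at 0 min, 30 sec, 1 min and 5 mins were diluted in test medium, streaked on agar, and colonies counted after 24 to 48 hrs to give viable counts in Log10 CFU/mL.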

[8] = system: Pseudomonas aeruginosa (ATCC 27853); experiment: Time kill study, Example 33 (0 to 5 min); assay type: cell-based; conditions: 1×MIC
In short: as §2

[9] = system: Escherichia coli (ATCC 25922); experiment: Time kill study, Example 33 (0 to 5 min); assay type: cell-based; conditions: 1×MIC
In short: as §2

[10] = system: Candida albicans (ATCC 90029); experiment: Time kill study, Example 33 (0 to 5 min); assay type: cell-based; conditions: 1×MIC
In short: as §2

[11] = Solubility (Sol., Table 1); assay type: physicochemical
[12] = system: Aspergillus niger (CMCC 98003); experiment: Minimum inhibitory concentration (MIC) assay, Example 33; assay type: cell-based; conditions: Aspergillus niger
In short: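 Broth microdilution MIC per CLSI guidelines in RPMI 1640 with serial 2-fold compound dilutions. Spore suspension from sporulating colonies adjusted to OD530 0.09-0.13, diluted 1:50 as 2× inoculum and added 1:2 to drug wells; plates incubated at 35 °C and MIC read per CLSI.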

[13] = ATCC27853, Table 19 summary, read-out: MIC
[14] = ATCC27853, n = 1, read-out: MIC P. aeruginosa
[15] = ATCC27853, n = 2, read-out: MIC P. aeruginosa
[16] = ATCC25922, n = 1, read-out: MIC E. coli
[17] = ATCC25922, n = 2, read-out: MIC E. coli
[18] = ATCC29213, Table 19 summary, read-out: MIC
[19] = ATCC29213, n = 1, read-out: MIC S. aureus
[20] = ATCC29213, n = 2, read-out: MIC S. aureus
[21] = ATCC90029, Table 19 summary, read-out: MIC
[22] = ATCC90029, n = 1, read-out: MIC Candida albicans
[23] = ATCC90029, n = 2, read-out: MIC Candida albicans
[24] = CMCC98003, Table 19 summary, read-out: MIC
[25] = CMCC98003, n = 1, read-out: MIC Aspergillus niger
[26] = CMCC98003, n = 2, read-out: MIC Aspergillus niger

SMILES | MIC [1, 13] | MIC [1, 14] | MIC [1, 15] | MIC [2, 16] | MIC [2, 17] | Viable counts, Aspergillus niger time kill study ([3]; 0.5 min) | Viable counts, Aspergillus niger time kill study ([3]; 1 min) | Viable counts, Aspergillus niger time kill study ([3]; 5 min) | Viable counts, Aspergillus niger time kill study ([3]; time 0) | MIC [4, 18] | MIC [4, 19] | MIC [4, 20] | pH [5] | melting point | MIC [6, 21] | MIC [6, 22] | MIC [6, 23] | Viable counts, Staphylococcus aureus time kill study ([7]; 0.5 min) | Viable counts, Staphylococcus aureus time kill study ([7]; 1 min) | Viable counts, Staphylococcus aureus time kill study ([7]; 5 min) | other results
CCCCCCCCCCCCOC(=O)C(C)NCCO.Cl (stereo not drawn) [Nex-61, Dodecyl 2-((2-hydroxyethyl)amino)propanoate hydrochloride] | 6250 µg/mL | 6250 µg/mL | 6250 µg/mL | 780 µg/mL | 1560 µg/mL | 5.30 Log10 CFU/mL | 5.16 Log10 CFU/mL | 5.11 Log10 CFU/mL | 5.36 Log10 CFU/mL | 50 µg/mL | 50 µg/mL | 50 µg/mL | 1.50 | 134 to 139 °C | 12.5 µg/mL | 12.5 µg/mL | 12.5 µg/mL | 6.15 Log10 CFU/mL | 6.07 Log10 CFU/mL | 5.54 Log10 CFU/mL | MIC ([2]; ATCC25922, Table 19 summary of Example 33 and Example 35, read-out: MIC): 780 µg/mL; Viable counts, Staphylococcus aureus time kill study ([7]; time 0): 6.38 Log10 CFU/mL; Viable counts, Pseudomonas aeruginosa time kill study ([8]; 0.5 min): 4 Log10 CFU/mL; Viable counts, Pseudomonas aeruginosa time kill study ([8]; 1 min): <3.70 Log10 CFU/mL; Viable counts, Pseudomonas aeruginosa time kill study ([8]; 5 min): <3.52 Log10 CFU/mL; Viable counts, Pseudomonas aeruginosa time kill study ([8]; time 0): 5.71 Log10 CFU/mL; Viable counts, Escherichia coli time kill study ([9]; 0.5 min): 5.54 Log10 CFU/mL; Viable counts, Escherichia coli time kill study ([9]; 1 min): 5.61 Log10 CFU/mL; Viable counts, Escherichia coli time kill study ([9]; 5 min): 4.9 Log10 CFU/mL; Viable counts, Escherichia coli time kill study ([9]; time 0): 5.78 Log10 CFU/mL; Viable counts, Candida albicans time kill study ([10]; 0.5 min): 5.19 Log10 CFU/mL; Viable counts, Candida albicans time kill study ([10]; 1 min): 5.36 Log10 CFU/mL; Viable counts, Candida albicans time kill study ([10]; 5 min): 5.3 Log10 CFU/mL; Viable counts, Candida albicans time kill study ([10]; time 0): 5.23 Log10 CFU/mL; Sol. [11]: 40%; MIC [12, 24]: 50 µg/mL; MIC [12, 25]: 50 µg/mL; MIC [12, 26]: 25 µg/mL
CCCCCCCCCCCCOC(=O)C(C)NC.Cl (stereo not drawn) [Nex-59, Dodecyl 2-(methylamino)propanoate hydrochloride] | 3130 µg/mL | 3130 µg/mL | 3130 µg/mL | 50 µg/mL | 50 µg/mL | 5.30 Log10 CFU/mL | 5.33 Log10 CFU/mL | 5.18 Log10 CFU/mL | 5.27 Log10 CFU/mL | 50 µg/mL | 50 µg/mL | 50 µg/mL | 2.17 | 78 to 83 °C | 50 µg/mL | 25 µg/mL | 25 µg/mL | 6.33 Log10 CFU/mL | 6.22 Log10 CFU/mL | 6.15 Log10 CFU/mL | Viable counts, Staphylococcus aureus time kill study ([7]; time 0): 6.33 Log10 CFU/mL; Viable counts, Pseudomonas aeruginosa time kill study ([8]; 0.5 min): 5.26 Log10 CFU/mL; Viable counts, Pseudomonas aeruginosa time kill study ([8]; 1 min): 4.78 Log10 CFU/mL; Viable counts, Pseudomonas aeruginosa time kill study ([8]; 5 min): <3.52 Log10 CFU/mL; Viable counts, Pseudomonas aeruginosa time kill study ([8]; time 0): 5.65 Log10 CFU/mL; Viable counts, Escherichia coli time kill study ([9]; 0.5 min): 5.04 Log10 CFU/mL; Viable counts, Escherichia coli time kill study ([9]; 1 min): 5.11 Log10 CFU/mL; Viable counts, Escherichia coli time kill study ([9]; 5 min): 4.56 Log10 CFU/mL; Viable counts, Escherichia coli time kill study ([9]; time 0): 5.34 Log10 CFU/mL; Viable counts, Candida albicans time kill study ([10]; 0.5 min): 5.18 Log10 CFU/mL; Viable counts, Candida albicans time kill study ([10]; 1 min): 5.32 Log10 CFU/mL; Viable counts, Candida albicans time kill study ([10]; 5 min): 5.23 Log10 CFU/mL; Viable counts, Candida albicans time kill study ([10]; time 0): 5.3 Log10 CFU/mL; Sol. [11]: 33%; MIC [12, 24]: 50 µg/mL; MIC [12, 25]: 50 µg/mL; MIC [12, 26]: 50 µg/mL
